Measurements: publication PMC7176540 (Chembiochem : a European journal of chemical biology, 2019)

Biological target: AlaI (Streptomyces alanosinicus, UniProt A0A6H1Z626)
Assay: co-purification with the enzyme
Assay type: binding
Conditions: 10 uM FAD also added in assay; pH 8.0

Cc1cc2nc3c(=O)[nH]c(=O)nc-3n(C[C@H](O)[C@H](O)[C@H](O)COP(=O)(O)OP(=O)(O)OC[C@H]3O[C@@H](n4cnc5c(N)ncnc54)[C@H](O)[C@@H]3O)c2cc1C [FAD]
co-purification with the enzyme: AlaI purified with FAD, hence we still observed activity without exogenous FAD added
